Experiments:
Type in all cases: in vivo
[1] = tested on: barnyardgrass (Echinochloa crus-galli); assay: Test G Pre-Emergence Protocol; details: Echinochloa crus-galli, pre-emergence, 312 h, evaluated after 13 days; for pest or weed control at 15.625 g/ha: 15.625 g ai/ha, read-out: Barnyard grass damage rating (100=total damage to plant; 0=no damage to plant); for pest or weed control at 62.5 g/ha: 62.5 g ai/ha, 100=total damage to plant, 0=no damage to plant, read-out: plant damage rating, Barnyardgrass; for pest or weed control at 250 g/ha: 250 g ai/ha, read-out: Barnyardgrass damage rating (100=total damage to plant; 0=no damage to plant)
Method in brief: (§1)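 Scores are visual damage ratings from 0 (no damage) to 100 (total plant kill), taken 13 days after treatment. Compound was sprayed one day post-sowing at 15.625, 62.5 or 250 g/ha in 50:50 acetone/water with 0.5% Tween 20.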

[2] = tested on: redroot pigweed (Amaranthus retroflexus); assay: Test G Pre-Emergence Protocol; details: Amaranthus retroflexus, pre-emergence, 312 h, evaluated after 13 days; for pest or weed control at 15.625 g/ha: 15.625 g ai/ha; for pest or weed control at 15.625 g/ha / pest or weed control at 250 g/ha: read-out: Pigweed, Redroot damage rating (100=total damage to plant; 0=no damage to plant); for pest or weed control at 62.5 g/ha: 62.5 g ai/ha, 100=total damage to plant, 0=no damage to plant, read-out: plant damage rating, Pigweed, Redroot; for pest or weed control at 250 g/ha: 250 g ai/ha
Method in brief: as §1

[3] = tested on: velvetleaf (Abutilon theophrasti); assay: Test G Pre-Emergence Protocol; details: Abutilon theophrasti, pre-emergence, 312 h, evaluated after 13 days; for pest or weed control at 15.625 g/ha: 15.625 g ai/ha; for pest or weed control at 15.625 g/ha / pest or weed control at 250 g/ha: read-out: Velvetleaf damage rating (100=total damage to plant; 0=no damage to plant); for pest or weed control at 62.5 g/ha: 62.5 g ai/ha, 100=total damage to plant, 0=no damage to plant, read-out: plant damage rating, Velvetleaf; for pest or weed control at 250 g/ha: 250 g ai/ha
Method in brief: as §1

corn (Zea mays) [4] = assay: Test G Pre-Emergence Protocol; details: Zea mays, pre-emergence, 312 h, evaluated after 13 days; for plant injury at 15.625 g/ha: 15.625 g ai/ha; for plant injury at 15.625 g/ha / plant injury at 250 g/ha: read-out: Corn damage rating (100=total damage to plant; 0=no damage to plant); for plant injury at 62.5 g/ha: 62.5 g ai/ha, 100=total damage to plant, 0=no damage to plant, read-out: plant damage rating, Corn; for plant injury at 250 g/ha: 250 g ai/ha
Method in brief: as §1

[5] = tested on: giant foxtail (Setaria faberi); assay: Test G Pre-Emergence Protocol; details: Setaria faberi, pre-emergence, 312 h, evaluated after 13 days; for pest or weed control at 15.625 g/ha: 15.625 g ai/ha; for pest or weed control at 15.625 g/ha / pest or weed control at 250 g/ha: read-out: Foxtail, Giant damage rating (100=total damage to plant; 0=no damage to plant); for pest or weed control at 62.5 g/ha: 62.5 g ai/ha, 100=total damage to plant, 0=no damage to plant, read-out: plant damage rating, Foxtail, Giant; for pest or weed control at 250 g/ha: 250 g ai/ha
Method in brief: as §1

[6] = tested on: ivy-leaved morning glory (Ipomoea hederacea); assay: Test G Pre-Emergence Protocol; details: Ipomoea, pre-emergence, 312 h, evaluated after 13 days; for pest or weed control at 15.625 g/ha: 15.625 g ai/ha, read-out: Morning-glory, Ivy-leaved damage rating (100=total damage to plant; 0=no damage to plant); for pest or weed control at 62.5 g/ha: 62.5 g ai/ha, 100=total damage to plant, 0=no damage to plant, read-out: plant damage rating, Morningglory, Ivy-leaved; for pest or weed control at 250 g/ha: 250 g ai/ha, read-out: Morningglory, Ivy-leaved damage rating (100=total damage to plant; 0=no damage to plant)
Method in brief: as §1

[7] = tested on: barnyardgrass (Echinochloa crus-galli); assay: Test G Post-Emergence Protocol; details: Echinochloa crus-galli, post-emergence, 312 h; for pest or weed control at 15.625 g/ha: 15.625 g ai/ha, evaluated after 13 days (100=total damage to plant; 0=no damage to plant), read-out: Barnyardgrass damage rating; for pest or weed control at 62.5 g/ha: 62.5 g ai/ha, read-out: Barnyardgrass damage rating (100=total damage to plant; 0=no damage to plant); for pest or weed control at 62.5 g/ha / pest or weed control at 250 g/ha: evaluated after 13 days; for pest or weed control at 250 g/ha: 250 g ai/ha, read-out: damage to plant, Barnyardgrass (100=total damage to plant; 0=no damage to plant)
Method in brief: (§2)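 Eight days post-sowing, plants received a spray of test compound (acetone/water 50:50, 0.5% Tween 20) at 15.625, 62.5 or 250 g/ha. Glasshouse regime thereafter: 24/16 °C, 14 h light, 65% humidity. Assessment after 13 days on a 0–100 damage scale.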

[8] = tested on: redroot pigweed (Amaranthus retroflexus); assay: Test G Post-Emergence Protocol; details: Amaranthus retroflexus, post-emergence, 312 h; for pest or weed control at 15.625 g/ha: 15.625 g ai/ha, evaluated after 13 days (100=total damage to plant; 0=no damage to plant), read-out: Pigweed, Redroot damage rating; for pest or weed control at 62.5 g/ha: 62.5 g ai/ha, read-out: Pigweed, Redroot damage rating (100=total damage to plant; 0=no damage to plant); for pest or weed control at 62.5 g/ha / pest or weed control at 250 g/ha: evaluated after 13 days; for pest or weed control at 250 g/ha: 250 g ai/ha, read-out: damage to plant, Pigweed, Redroot (100=total damage to plant; 0=no damage to plant)
Method in brief: as §2

[9] = tested on: velvetleaf (Abutilon theophrasti); assay: Test G Post-Emergence Protocol; details: Abutilon theophrasti, post-emergence, 312 h; for pest or weed control at 15.625 g/ha: 15.625 g ai/ha, evaluated after 13 days (100=total damage to plant; 0=no damage to plant), read-out: Velvetleaf damage rating; for pest or weed control at 62.5 g/ha: 62.5 g ai/ha, read-out: Velvetleaf damage rating (100=total damage to plant; 0=no damage to plant); for pest or weed control at 62.5 g/ha / pest or weed control at 250 g/ha: evaluated after 13 days; for pest or weed control at 250 g/ha: 250 g ai/ha, read-out: damage to plant, Velvetleaf (100=total damage to plant; 0=no damage to plant)
Method in brief: as §2

corn (Zea mays) [10] = assay: Test G Post-Emergence Protocol; details: Zea mays, post-emergence, 312 h; for plant injury at 15.625 g/ha: 15.625 g ai/ha, evaluated after 13 days (100=total damage to plant; 0=no damage to plant), read-out: Corn damage rating; for plant injury at 62.5 g/ha: 62.5 g ai/ha, read-out: Corn damage rating (100=total damage to plant; 0=no damage to plant); for plant injury at 62.5 g/ha / plant injury at 250 g/ha: evaluated after 13 days; for plant injury at 250 g/ha: 250 g ai/ha, read-out: damage to plant, Corn (100=total damage to plant; 0=no damage to plant)
Method in brief: as §2

[11] = tested on: giant foxtail (Setaria faberi); assay: Test G Post-Emergence Protocol; details: Setaria faberi, post-emergence, 312 h; for pest or weed control at 15.625 g/ha: 15.625 g ai/ha, evaluated after 13 days (100=total damage to plant; 0=no damage to plant), read-out: Foxtail, Giant damage rating; for pest or weed control at 62.5 g/ha: 62.5 g ai/ha, read-out: Foxtail, Giant damage rating (100=total damage to plant; 0=no damage to plant); for pest or weed control at 62.5 g/ha / pest or weed control at 250 g/ha: evaluated after 13 days; for pest or weed control at 250 g/ha: 250 g ai/ha, read-out: damage to plant, Foxtail, Giant (100=total damage to plant; 0=no damage to plant)
Method in brief: as §2

[12] = tested on: ivy-leaved morning glory (Ipomoea hederacea); assay: Test G Post-Emergence Protocol; details: Ipomoea, post-emergence, 312 h; for pest or weed control at 15.625 g/ha: 15.625 g ai/ha, evaluated after 13 days (100=total damage to plant; 0=no damage to plant), read-out: Morningglory, Ivy-leaved damage rating; for pest or weed control at 62.5 g/ha: 62.5 g ai/ha, read-out: Morningglory, Ivy-leaved damage rating (100=total damage to plant; 0=no damage to plant); for pest or weed control at 62.5 g/ha / pest or weed control at 250 g/ha: evaluated after 13 days; for pest or weed control at 250 g/ha: 250 g ai/ha, read-out: damage to plant, Morningglory, Ivy-leaved (100=total damage to plant; 0=no damage to plant)
Method in brief: as §2

SMILES | pest or weed control at 15.625 g/ha [1] | pest or weed control at 62.5 g/ha [1] | pest or weed control at 250 g/ha [1] | pest or weed control at 15.625 g/ha [2] | pest or weed control at 62.5 g/ha [2] | pest or weed control at 250 g/ha [2] | pest or weed control at 15.625 g/ha [3] | pest or weed control at 62.5 g/ha [3] | pest or weed control at 250 g/ha [3] | plant injury at 15.625 g/ha (corn (Zea mays) [4]) | plant injury at 62.5 g/ha (corn (Zea mays) [4]) | plant injury at 250 g/ha (corn (Zea mays) [4]) | pest or weed control at 15.625 g/ha [5] | pest or weed control at 62.5 g/ha [5] | pest or weed control at 250 g/ha [5] | pest or weed control at 15.625 g/ha [6] | pest or weed control at 62.5 g/ha [6] | pest or weed control at 250 g/ha [6] | pest or weed control at 15.625 g/ha [7] | pest or weed control at 62.5 g/ha [7] | other results
CN1C[C@@H](c2ccnc(C(F)(F)F)c2)[C@H](C(=O)Nc2cccc(F)c2F)C1=O (racemic) [Compound 1585] | 70% | 90% | 90% | 0% | 0% | 20% | 0% | 0% | 30% | 0% | 80% | 80% | 70% | 80% | 90% | 0% | 30% | 80% | 70% | 80% | pest or weed control at 250 g/ha [7]: 70%; pest or weed control at 15.625 g/ha [8]: 0%; pest or weed control at 62.5 g/ha [8]: 20%; pest or weed control at 250 g/ha [8]: 30%; pest or weed control at 15.625 g/ha [9]: 0%; pest or weed control at 62.5 g/ha [9]: 20%; pest or weed control at 250 g/ha [9]: 30%; plant injury at 15.625 g/ha (corn (Zea mays) [10]): 30%; plant injury at 62.5 g/ha (corn (Zea mays) [10]): 60%; plant injury at 250 g/ha (corn (Zea mays) [10]): 80%; pest or weed control at 15.625 g/ha [11]: 60%; pest or weed control at 62.5 g/ha [11]: 60%; pest or weed control at 250 g/ha [11]: 70%; pest or weed control at 15.625 g/ha [12]: 20%; pest or weed control at 62.5 g/ha [12]: 30%; pest or weed control at 250 g/ha [12]: 70%
CN1C[C@@H](c2ccc(C(F)(F)F)cc2)[C@H](C(=O)Nc2csc(C(F)(F)F)n2)C1=O (racemic) [Compound 1587] | 0% | 0% | 0% | 0% | 0% | 10% | 0% | 0% | 0% | 0% | 10% | 0% | 0% | 0% | 0% | 0% | 0% | 0% | 0% | 20% | pest or weed control at 250 g/ha [7]: 40%; pest or weed control at 15.625 g/ha [8]: 0%; pest or weed control at 62.5 g/ha [8]: 10%; pest or weed control at 250 g/ha [8]: 70%; pest or weed control at 15.625 g/ha [9]: 0%; pest or weed control at 62.5 g/ha [9]: 0%; pest or weed control at 250 g/ha [9]: 0%; plant injury at 15.625 g/ha (corn (Zea mays) [10]): 0%; plant injury at 62.5 g/ha (corn (Zea mays) [10]): 0%; plant injury at 250 g/ha (corn (Zea mays) [10]): 0%; pest or weed control at 15.625 g/ha [11]: 0%; pest or weed control at 62.5 g/ha [11]: 20%; pest or weed control at 250 g/ha [11]: 60%; pest or weed control at 15.625 g/ha [12]: 0%; pest or weed control at 62.5 g/ha [12]: 0%; pest or weed control at 250 g/ha [12]: 40%
